From ChEMBL document CHEMBL2434882, “A novel [1,2,4] triazolo [1,5-a] pyrimidine-based phenyl-linked steroid dimer: synthesis and its cytotoxic activity” (Eur J Med Chem, 2013)
Active and inactive are the calls of the source. No cut-off for these calls is given here.

Tests used:
[1] = Upregulation of Bax protein expression in human EC109 cells at 5 to 10 uM after 24 hrs by Western blot analysis; assay type: functional, cell-based; details: ECa-109
[2] = Downregulation of MDM2 protein expression in human EC109 cells at 5 to 10 uM after 24 hrs by Western blot analysis; assay type: functional, cell-based; details: ECa-109
[3] = Disruption of mitochondrial membrane potential in human EC109 cells at 10 uM after 24 hrs by JC1 staining-based flow cytometric analysis (reference value: 8.1%); assay type: functional, ECa-109
[4] = Disruption of mitochondrial membrane potential in human EC109 cells at 5 uM after 24 hrs by JC1 staining-based flow cytometric analysis (reference value: 8.1%); assay type: functional, ECa-109
ECa-109 cell line [5] = assay: Induction of apoptosis in human EC109 cells assessed as change in cellular morphology at 1.25 to 20 uM after 24 hrs by inverted microscopic analysis; assay type: functional, cell-based
ECa-109 cell line [6] = assay: Induction of apoptosis in human EC109 cells assessed as nuclear fragmentation at 1.25 to 20 uM after 24 hrs by Hoechst 33258 staining-based fluorescence microscopic analysis; assay type: functional, cell-based
[7] = Cell cycle arrest in human EC109 cells assessed as accumulation at G2/M phase after 12 to 24 hrs by propidium iodide staining-based flow cytometric analysis; assay type: functional; details: ECa-109
[8] = Cell cycle arrest in human EC109 cells assessed as accumulation at S phase at 10 uM after 24 hrs by propidium iodide staining-based flow cytometric analysis (reference value: 37.99%); assay type: functional; details: ECa-109
[9] = Cell cycle arrest in human EC109 cells assessed as accumulation at G0/G1 phase at 10 uM after 24 hrs by propidium iodide staining-based flow cytometric analysis (reference value: 51.57%); assay type: functional; details: ECa-109
[10] = Cell cycle arrest in human EC109 cells assessed as accumulation at S phase at 2.5 uM after 24 hrs by propidium iodide staining-based flow cytometric analysis (reference value: 37.99%); assay type: functional; details: ECa-109
[11] = Cell cycle arrest in human EC109 cells assessed as accumulation at S phase at 10 uM after 12 hrs by propidium iodide staining-based flow cytometric analysis (reference value: 33.29%); assay type: functional; details: ECa-109
[12] = Cell cycle arrest in human EC109 cells assessed as accumulation at G2/M phase at 5 uM after 12 hrs by propidium iodide staining-based flow cytometric analysis (reference value: 13.72%); assay type: functional; details: ECa-109
[13] = Cell cycle arrest in human EC109 cells assessed as accumulation at G0/G1 phase at 5 uM after 12 hrs by propidium iodide staining-based flow cytometric analysis (reference value: 50.87%); assay type: functional; details: ECa-109
[14] = Cell cycle arrest in human EC109 cells assessed as accumulation at S phase at 2.5 uM after 12 hrs by propidium iodide staining-based flow cytometric analysis (reference value: 33.29%); assay type: functional; details: ECa-109
ECa-109 cell line [15] = assay: Induction of apoptosis in human EC109 cells assessed as increase in early apoptotic cells after 12 to 24 hrs by annexin V-FITC/propidium iodide staining-based flow cytometric analysis; assay type: functional, cell-based
ECa-109 cell line [16] = assay: Induction of apoptosis in human EC109 cells assessed as live cells at 40 uM after 24 hrs by annexin V-FITC/propidium iodide staining-based flow cytometric analysis (reference value: 93.6%); assay type: functional
ECa-109 cell line [17] = assay: Induction of apoptosis in human EC109 cells assessed as early apoptotic cells at 40 uM after 24 hrs by annexin V-FITC/propidium iodide staining-based flow cytometric analysis (reference value: 3.8%); assay type: functional
ECa-109 cell line [18] = assay: Induction of apoptosis in human EC109 cells assessed as late apoptotic cells at 20 uM after 24 hrs by annexin V-FITC/propidium iodide staining-based flow cytometric analysis (reference value: 2.5%); assay type: functional
ECa-109 cell line [19] = assay: Induction of apoptosis in human EC109 cells assessed as late apoptotic cells at 10 uM after 24 hrs by annexin V-FITC/propidium iodide staining-based flow cytometric analysis (reference value: 2.5%); assay type: functional
ECa-109 cell line [20] = assay: Induction of apoptosis in human EC109 cells assessed as early apoptotic cells at 10 uM after 24 hrs by annexin V-FITC/propidium iodide staining-based flow cytometric analysis (reference value: 3.8%); assay type: functional
ECa-109 cell line [21] = assay: Induction of apoptosis in human EC109 cells assessed as late apoptotic cells at 5 uM after 24 hrs by annexin V-FITC/propidium iodide staining-based flow cytometric analysis (reference value: 2.5%); assay type: functional
ECa-109 cell line [22] = assay: Induction of apoptosis in human EC109 cells assessed as early apoptotic cells at 5 uM after 24 hrs by annexin V-FITC/propidium iodide staining-based flow cytometric analysis (reference value: 3.8%); assay type: functional
ECa-109 cell line [23] = assay: Induction of apoptosis in human EC109 cells assessed as early apoptotic cells at 2.5 uM after 24 hrs by annexin V-FITC/propidium iodide staining-based flow cytometric analysis (reference value: 3.8%); assay type: functional
ECa-109 cell line [24] = assay: Induction of apoptosis in human EC109 cells assessed as live cells at 40 uM after 12 hrs by annexin V-FITC/propidium iodide staining-based flow cytometric analysis (reference value: 92.1%); assay type: functional
ECa-109 cell line [25] = assay: Induction of apoptosis in human EC109 cells assessed as damaged cells at 40 uM after 12 hrs by annexin V-FITC/propidium iodide staining-based flow cytometric analysis (reference value: 0.4%); assay type: functional
ECa-109 cell line [26] = assay: Induction of apoptosis in human EC109 cells assessed as early apoptotic cells at 20 uM after 12 hrs by annexin V-FITC/propidium iodide staining-based flow cytometric analysis (reference value: 6.1%); assay type: functional
ECa-109 cell line [27] = assay: Induction of apoptosis in human EC109 cells assessed as live cells at 10 uM after 12 hrs by annexin V-FITC/propidium iodide staining-based flow cytometric analysis (reference value: 92.1%); assay type: functional
ECa-109 cell line [28] = assay: Induction of apoptosis in human EC109 cells assessed as damaged cells at 10 uM after 12 hrs by annexin V-FITC/propidium iodide staining-based flow cytometric analysis (reference value: 0.4%); assay type: functional
ECa-109 cell line [29] = assay: Induction of apoptosis in human EC109 cells assessed as damaged cells at 5 uM after 12 hrs by annexin V-FITC/propidium iodide staining-based flow cytometric analysis (reference value: 0.4%); assay type: functional
ECa-109 cell line [30] = assay: Induction of apoptosis in human EC109 cells assessed as early apoptotic cells at 5 uM after 12 hrs by annexin V-FITC/propidium iodide staining-based flow cytometric analysis (reference value: 6.1%); assay type: functional
ECa-109 cell line [31] = assay: Induction of apoptosis in human EC109 cells assessed as live cells at 2.5 uM after 12 hrs by annexin V-FITC/propidium iodide staining-based flow cytometric analysis (reference value: 92.1%); assay type: functional
ECa-109 cell line [32] = assay: Induction of apoptosis in human EC109 cells assessed as damaged cells at 2.5 uM after 12 hrs by annexin V-FITC/propidium iodide staining-based flow cytometric analysis (reference value: 0.4%); assay type: functional
[33] = Selectivity ratio of IC50 for human L02 cells to IC50 for human SMMC7721 cells; assay type: cell-based, SMMC-7721; details: L02 cells versus SMMC7721 cells, read-out: Ratio IC50
[34] = Cytotoxicity against human L02 cells assessed as cell viability at 20 uM after 72 hrs by MTT assay relative to control; assay type: cell-based; details: read-out: Activity
[35] = Cytotoxicity against human L02 cells assessed as growth inhibition after 72 hrs by MTT assay; assay type: cell-based; details: L02, 72 h
MGC-803 = assay: Cytotoxicity against human MGC803 cells assessed as growth inhibition after 72 hrs by MTT assay; assay type: functional, cell-based; details: MGC-803, 72 h

For C[C@]12CC[C@H](O)CC1=CC[C@@H]1[C@@H]2CC[C@]2(C)c3nc4ncnn4c(-c4cccc(-c5c6c(nc7ncnn57)[C@@]5(C)CC[C@H]7[C@@H](CC=C8C[C@@H](O)CC[C@@]87C)[C@@H]5C6)c4)c3C[C@@H]12, the Activity [1] was “Active”, the Activity [2] was “Active” and the Activity [3] was 76.7%. For the same compound, the Activity [4] was 40%, the Activity (ECa-109 cell line [5]) was “Active” and the Activity (ECa-109 cell line [6]) was “Active”. For the same compound, the Activity [7] was “Dose-dependent effect”, the Activity [8] was 28.5% and the Activity [9] was 45%. It also gave an Activity [10] of 43.5%, an Activity [11] of 21.6% and an Activity [12] of 20.8%. For the same compound, the Activity [13] was 52.9%, the Activity [14] was 34.2% and the Activity (ECa-109 cell line [15]) was “Dose-dependent effect”. It also gave an Activity (ECa-109 cell line [16]) of 8.3%, an Activity (ECa-109 cell line [17]) of 12% and an Activity (ECa-109 cell line [18]) of 58.9%. For the same compound, the Activity (ECa-109 cell line [19]) was 47.7%, the Activity (ECa-109 cell line [20]) was 24% and the Activity (ECa-109 cell line [21]) was 12.2%. It also gave an Activity (ECa-109 cell line [22]) of 39.1%, an Activity (ECa-109 cell line [23]) of 25% and an Activity (ECa-109 cell line [24]) of 14.6%. The Activity (ECa-109 cell line [25]) was 7.9%, the Activity (ECa-109 cell line [26]) was 34% and the Activity (ECa-109 cell line [27]) was 54%. For the same compound, the Activity (ECa-109 cell line [28]) was 2.7%, the Activity (ECa-109 cell line [29]) was 2% and the Activity (ECa-109 cell line [30]) was 24.1%. For the same compound, the Activity (ECa-109 cell line [31]) was 58.3%, the Activity (ECa-109 cell line [32]) was 1.7% and the selectivity ratio [33] was 49. For the same compound, the viability at 72 h, 20 µM [34] was 70%, the IC50 [35] was 83 µM and the IC50 (MGC-803) was 0.13 µM.
